Measurements taken from patent US20100158846A1, “HAIR-BINDING PEPTIDES” (E. I. DU PONT DE NEMOURS AND COMPANY, priority 2008, published 2010).

Conditions: biotinylated peptide binding to gray human hair bundle; streptavidin-HRP/TMB, A450; calculated from Scatchard plots
Method: Then, the streptavidin-horseradish peroxidase (HRP) conjugate (Pierce Chemical Co., Rockford, Ill.) was added to each well (1.0 μg per well), and incubated for 1 h at room temperature, followed by 6 times of washes with TBST. […] The results were plotted as A450 versus the concentration of peptide using GraphPad Prism 4.0 (GraphPad Software, Inc., San Diego, Calif.).

## PLWRRITKRKLVRPVATLMWYWFTSKR-K(biotin)-NH2 [CXH-G2]
  MB50: 72 nM
